Measurements taken from patent US6281250A, “Retinyl ethers, derivatives and analogues and inhibition of breast carcinogenesis” (Southern Research Institute, priority 1999, dated 2001).
“Also recorded” adds a separate entry of the source.

Experiments:
[1] = molecular target: T1, cellular retinol-binding protein (CRBP) (Rattus norvegicus, UniProt P02696); experiment: Binding to cellular retinol-binding protein (CRBP): inhibition of [3H]retinol binding, sucrose density-gradient sedimentation; conditions: for Percent Inhibition of [3H] Retinol Binding (CRBP Assay): 150-fold molar excess of unlabelled test retinoid, rat testes cytosol
T1 construct: portions of rat testes cytosol (1 mg protein) were incubated; from tissue; host or cells: rat testes cytosol
T1 sequence (P02696 1-135): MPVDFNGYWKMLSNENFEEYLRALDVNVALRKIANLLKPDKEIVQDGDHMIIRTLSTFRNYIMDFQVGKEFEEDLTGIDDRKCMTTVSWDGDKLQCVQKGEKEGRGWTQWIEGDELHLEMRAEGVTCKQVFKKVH
Procedure: Binding affinities of the retinyl ethers for CRBP were determined by sucrose, density-gradient, sedimentation analysis as described before (Sani et al., 1980). Briefly, portions of rat testes cytosol (1 mg protein) were incubated with [^3 H]retinol (50 pmol) in the presence or absence of a 150-fold molar excess of unlabeled retinol or the test retinoids. The preparations after dialysis were analyzed by 5-20% sucrose density gradient sedimentation. For measuring the competitive binding of the unlabeled retinoids, inhibition of [^3 H]retinol binding to CRBP by unlabeled retinol is regarded as 100%. The mean and standard deviation calculated from the relative inhibitions obtained from multiple determinations were used as the relative binding affinities of the various retinyl ethers.
The group of retinyl benzyl ethers has now been evaluated for binding to CRBP. Binding to CRBP, as defined for Table I, at approximately 60% or higher was rated as strong; at 40-60%, as moderate; at 20-40%, as low.
^a Per cent inhibition of binding of tritiated retinol to CRBP by a
150-fold molar excess of the unlabelled test retinoid (Sani et al., 1980,

[2] = rat, in feed; Shealy et al., 1997; cited from earlier work
[3] = tested on: carcinogen-induced mammary cancer; conditions: rats; Thompson et al., 1978 / Shealy et al., 1997; cited from earlier work
[4] = tested on: MNU-induced mammary cancer; experiment: Short-term (90-day) assay against MNU-induced mammary cancer in rats (Expts. 2 and 3); type: in vivo, rat (female Sprague-Dawley); conditions: for effectiveness in reducing the number of tumors per rat / Tumors, % of Control Gp. / Tumors, Avg. No. per Rat: 90 days; for effectiveness in reducing the number of tumors per rat: in feed
Procedure: (§1) Retinoid diet mixtures were stored at 4° C. […] The animals were palpated for mammary tumors 2×/week. […] Also, five rats/group had complete necropsies performed.
(§2) The 2,5-dimethoxybenzyl (3b) and 4-methoxybenzyl (3e) ethers were tested in the same way in a 90-day study. […] The 2,5-dimethybenzyl (3c) and the 2,3-dimethoxybenzyl (3h) ethers, together with RTMBE for comparison, were likewise assayed according to the same methodology. Prior to the beginning of this study, specimens of the retinoid-diet mixtures were placed under the conditions that were employed during the storage and feeding of RTMBE, 3c, and 3h. The specimens were extracted with butanol, and the extracts were analyzed by HPLC. […] Testing of 3c and 3h was discontinued, but the RTMBE study was continued until the duration of the study was 180 days (Table 6). The results were similar to those of Experiment 1 (Table 3). The averages of the number of tumors per rat were reduced by 32-35%; in addition, the averages of the tumor weights per rat was 56-70% lower than the average tumor burden of the control group.
and was continued until the studies of 3b, 3c, 3e, and 3h were terminated
90 days after administration of MNU. The RTMBE experiment was continued
until 180 days after MNU administration (Table VI).
kilogram of Teklad diet.

[5] = Analysis of feed samples for stability of retinyl ethers; type: physicochemical
Procedure: as §2
^a The values in each column are % recoveries of the retinyl ether from
mixtures of the ether with feed samples and are based on the actual
amounts of the ether that were added.
^b The samples that were analyzed were mixtures of vehicle, retinoid,
and feed (prepared as described by Shealy et al., 1997).
^c Food cups were placed in animal cages within the room that housed
the rats; therefore, temperature (22° C.) and lighting were
identical to those in use during the in vivo tests.

[6] = Toxicity observations in rats receiving retinoids in feed; type: in vivo, rat (Sprague-Dawley); conditions: administered in feed
Procedure: as §1

in vivo = conditions: for NOAEL: mouse, in vivo, po; for Toxic Dose: oral gavage in corn oil, 28-29 days; for clinical toxicity (alopecia, scaly skin, limping): oral gavage, up to highest dose (RTMBE and RMoBE-4: Expt. 2)
Procedure: Toxicological evaluations involving measurement of body weights and observations of clinical signs characteristic of retinoid toxicity were accomplished as previously described (Lin et al., 1996).
RTMBE and two of its analogues, together with RME and RPE, were selected for estimation of their toxicities to mice when administered during 28-29 days by gavage in corn oil (Table 8). Mice were evaluated for changes in body weight and for signs of clinical retinoid toxicity (hypervitaminosis A) including alopecia, scaly skin, and limping. In the first experiment, these retinyl ethers were given at equimicromolar doses at three dose levels. The retinyl benzyl ethers (RTMBE, 3c, and 3e) were then tested at higher doses in a second experiment.

[7] = Mammary tissue-to-plasma concentration after intravenous dosing; type: in vivo, rat (female Sprague-Dawley); conditions: rat, 5 mg/kg i.v., after 24 hr, read-out: ratio of mammary tissue-to-plasma concentrations

CC1=C(/C=C/C(C)=C/C=C/C(C)=C/COCc2ccccc2)C(C)(C)CCC1 [Compound 3d, Retinyl Benzyl Ether]
binding to CRBP, in words ([1]; 150-fold molar excess): not conducive to CRBP binding; also recorded: does not bind significantly to CRBP | Percent Inhibition of [3H] Retinol Binding (CRBP Assay) [1]: 5 ± 5%

CC(C)=CCOC/C=C(C)/C=C/C=C(C)/C=C/C1=C(C)CCCC1(C)C [RMBE, retinyl 3-methyl-2-butenyl ether]
accumulation of retinyl palmitate in the liver [2]: did not cause | suppression of MNU-induced mammary cancer [3]: inhibited the development of MNU-induced mammary cancer; also recorded: only modestly active

CC1=C(/C=C/C(C)=C/C=C/C(C)=C/COCc2cc(C)ccc2C)C(C)(C)CCC1 [Compound 3c, Retinyl 2,5-Dimethylbenzyl Ether]
effectiveness in reducing the number of tumors per rat [4]: not effective | Tumors, % of Control Gp. ([4]; Expt. 3, 0.5 mmol/kg diet): 104% | Tumors, Avg. No. per Rat ([4]; Expt. 3, 0.5 mmol/kg diet): 2.0 | Tumors, % of Control Gp. ([4]; Expt. 3, 1 mmol/kg diet): 171% | Tumors, Avg. No. per Rat ([4]; Expt. 3, 1 mmol/kg diet): 3.3 | Tumors, % of Control Gp. ([4]; Expt. 3, 2 mmol/kg diet): 109% | Tumors, Avg. No. per Rat ([4]; Expt. 3, 2 mmol/kg diet): 2.1 | % recovery of retinyl ether from feed ([5]; After 1 week of 4° C., 10080 min): 96% | % recovery of retinyl ether from feed ([5]; After 1 day in food cup (22° C.)): 106% | % recovery of retinyl ether from feed ([5]; After 2 days in food cup (22° C.)): 96% | % recovery of retinyl ether from feed ([5]; After 3 days in food cup (22° C.)): 102% | % recovery of retinyl ether from feed ([5]; Immediately After Mixing): 103% | % recovery of retinyl ether ([5]; Vehicle + Retinoid (only)): 100% | stability in diet mixtures ([5]; conditions of storage and feeding in animal rooms): essentially unchanged | toxicity in MNU-mammary cancer studies [6]: not toxic in the mammary carcinogenesis studies | NOAEL (in vivo): 431 mg/kg/day | Toxic Dose (in vivo): > 431 mg/kg day | clinical toxicity (alopecia, scaly skin, limping) (in vivo): No evidence of clinical toxicity except for scaly skin | Percent Inhibition of [3H] Retinol Binding (CRBP Assay) [1]: 65 ± 10%

COc1ccc(COC/C=C(C)/C=C/C=C(C)/C=C/C2=C(C)CCCC2(C)C)cc1 [Compound 3e, Retinyl 4-Methoxybenzyl Ether]
effectiveness compared with RTMBE ([4]; 90-day assays, MNU-induced mammary carcinogenesis): less effective than was RTMBE | reductions in the number of tumors per rat ([4]; 90-day study, 1 and 2 mmol/kg of diet): 37-49% | effectiveness in reducing the number of tumors per rat [4]: effective | Tumors, % of Control Gp. ([4]; Expt. 2, 0.5 mmol/kg diet): 71% | Tumors, Avg. No. per Rat ([4]; Expt. 2, 0.5 mmol/kg diet): 2.5 | Tumors, % of Control Gp. ([4]; Expt. 2, 1 mmol/kg diet): 63% | Tumors, Avg. No. per Rat ([4]; Expt. 2, 1 mmol/kg diet): 2.2 | Tumors, % of Control Gp. ([4]; Expt. 2, 2 mmol/kg diet): 51% | Tumors, Avg. No. per Rat ([4]; Expt. 2, 2 mmol/kg diet): 1.8 | Kp at 24 h [7]: 41 ± 14 | toxicity in MNU-mammary cancer studies [6]: not toxic in the mammary carcinogenesis studies | NOAEL (in vivo): 433 mg/kg/day | Toxic Dose (in vivo): > 433 mg/kg day | clinical toxicity (alopecia, scaly skin, limping) (in vivo): No evidence of clinical toxicity | binding to CRBP, in words ([1]; 150-fold molar excess): not conducive to CRBP binding | Percent Inhibition of [3H] Retinol Binding (CRBP Assay) [1]: 7 ± 7%

CC1=C(/C=C/C(C)=C/C=C/C(C)=C/COCc2ccc(Cl)cc2Cl)C(C)(C)CCC1 [Compound 3k, Retinyl 2,4-Dichlorobenzyl Ether]
Percent Inhibition of [3H] Retinol Binding (CRBP Assay) [1]: 0%

CC1=C(/C=C/C(C)=C/C=C/C(C)=C/COC(C)c2ccccc2)C(C)(C)CCC1 (stereo not drawn) [Compound 3m, Retinyl α-Methylbenzyl Ether]
Binding to CRBP, rating ([1]; 150-fold molar excess): strong binding | Percent Inhibition of [3H] Retinol Binding (CRBP Assay) [1]: 60 ± 0%

CC1=C(/C=C/C(C)=C/C=C/C(C)=C/COCc2c(Cl)cccc2Cl)C(C)(C)CCC1 [Compound 3l, Retinyl 2,6-Dichlorobenzyl Ether]
Percent Inhibition of [3H] Retinol Binding (CRBP Assay) [1]: 40 ± 5%
